We go through 14 molecules from article PMC3557594 (Biochimie, 2012).

Where two headings read alike, the source gives them in different places. Where only a bound is given, the exact number is not on record here.

The target of assay [1] is T1, Neisseria meningitides alanine aminopeptidase (NmAPN) (Neisseria meningitidis, UniProt Q9JYV4).
T1 sequence (Q9JYV4 1-867): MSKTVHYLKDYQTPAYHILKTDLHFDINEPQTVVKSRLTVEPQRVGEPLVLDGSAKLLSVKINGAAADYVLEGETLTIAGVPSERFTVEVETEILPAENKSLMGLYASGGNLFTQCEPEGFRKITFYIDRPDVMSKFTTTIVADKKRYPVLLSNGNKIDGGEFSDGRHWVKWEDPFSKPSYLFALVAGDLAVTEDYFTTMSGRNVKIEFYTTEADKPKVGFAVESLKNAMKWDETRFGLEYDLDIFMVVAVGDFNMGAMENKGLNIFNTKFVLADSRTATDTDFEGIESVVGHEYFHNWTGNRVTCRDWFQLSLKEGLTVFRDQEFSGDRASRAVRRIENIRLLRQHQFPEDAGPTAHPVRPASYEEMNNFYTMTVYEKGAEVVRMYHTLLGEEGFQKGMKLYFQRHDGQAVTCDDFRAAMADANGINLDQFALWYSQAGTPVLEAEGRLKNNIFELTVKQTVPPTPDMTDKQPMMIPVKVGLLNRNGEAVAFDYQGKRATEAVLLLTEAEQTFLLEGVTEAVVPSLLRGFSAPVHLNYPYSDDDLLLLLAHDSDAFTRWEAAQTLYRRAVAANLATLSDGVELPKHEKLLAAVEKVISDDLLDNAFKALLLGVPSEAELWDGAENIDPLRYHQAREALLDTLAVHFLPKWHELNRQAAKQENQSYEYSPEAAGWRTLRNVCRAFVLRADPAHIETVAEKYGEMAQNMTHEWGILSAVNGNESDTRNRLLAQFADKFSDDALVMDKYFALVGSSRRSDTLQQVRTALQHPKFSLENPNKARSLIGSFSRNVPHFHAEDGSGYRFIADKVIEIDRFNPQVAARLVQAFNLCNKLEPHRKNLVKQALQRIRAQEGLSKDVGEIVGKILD
The class given is biochemical. To be noted: substrate 3 μM, enzyme 1.37 nM, pH 7.5.

For assay [2], the target named is NmAPN (Neisseria meningitidis, UniProt Q9JYV4). The assay can be described thus: biochemical. The class given is biochemical, Neisseria meningitides. To be noted: for mode of inhibition: Lineweaver-Burk plot.
For assay [3], the target named is T1, Neisseria meningitides alanine aminopeptidase (NmAPN). The assay is described as follows: Kinetic parameters determination. It is filed as biochemical. As to conditions: ACC substrate, 50 mM Tris-HCl pH 7.5, 37 °C, enzyme 1.13 nM.
Assay [4] deals with porcine kidney APN. As to conditions: cited from earlier work.
In assay [5] the target is PfAPN. As to conditions: Plasmodium falciparum APN; cited from earlier work.

Regarding `N[C@@H](Cc1ccc(OCC(=O)O)cc1)C(=O)O` [4(1-carboxymethoxy)-L-Phe], the “hydrolysis of ACC substrate by NmAPN (in words)” value in assay [1] is recorded as “not hydrolyzed”.
Take `N=C(N)NCCCC(N)P(=O)(O)O` (stereo not shown) [Compound 1]: in assay [2], half-maximal inhibition (IC50) was put at 1.91 ± 0.18 µM and the Ki (as a rule, the equilibrium dissociation constant of an inhibitor or competing ligand from its target) amounted to 1.46 ± 0.14 µM.
As to `NC(CCc1ccccc1)P(=O)(O)O` (stereo not shown) [Compound 2], in assay [2], the IC50 (usually the midpoint of a concentration-inhibition curve) is 1.66 ± 0.07 µM.
Still for that read-out and setting: as for `NC(CCc1ccccc1)[PH](=O)O` (stereo not shown) [Compound 3], the figure is 1.91 ± 0.05 µM.
As to `NC(=O)Cc1cc(=O)oc2cc(NC(=O)[C@@H](N)Cc3ccc(Br)cc3)ccc12` [Compound 4-Br-L-Phe], the Km (as a rule, the substrate concentration at which the rate is half of its maximum) in assay [3] is more than 250 µM.
For `NC(CCc1ccccc1)P(=O)(O)CC(Cc1ccccc1)C(=O)O` (stereo not shown) [Compound 4], in assay [2], the IC50 is 0.397 ± 0.024 µM; the Ki was 0.302 ± 0.018 µM; the mode of inhibition entry was “reversible, competitive and tight-binding inhibitors”. Moreover, in assay [4], the Ki was 0.276 µM.
In assay [2], `NC(CCc1ccccc1)P(=O)(O)CC(Cc1ccc(O)cc1)C(=O)O` (stereo not shown) [Compound 5] showed an IC50 of 0.07 ± 0.007 µM. For the same molecule, the mode of inhibition result in assay [2] is “reversible, competitive and tight-binding inhibitors”. Besides, the Ki was 0.036 µM in assay [4] and 0.232 µM in assay [5].
Consider `NC(CCc1ccccc1)P(=O)(O)CNC(Cc1ccc(O)cc1)C(=O)O` (stereo not shown) [Compound 6], for which, in assay [2] (L-Arg-ACC 20 μM, enzyme 0.85 nM, 30 min preincubation, 37 °C), the IC50 was 3.29 ± 0.15 µM. The Ki in assay [2] (calculated from IC50 by Cheng-Prusoff equation, L-Arg-ACC 20 μM) is 2.51 ± 0.11 µM.
As to `NCC(=O)Nc1ccc2c(CC(N)=O)cc(=O)oc2c1` [Gly], in assay [3], the Km was more than 250 µM.
Regarding `CC[C@H](N)C(=O)Nc1ccc2c(CC(N)=O)cc(=O)oc2c1` [L-Abu], the “rate of hydrolysis, proportional to kcat/Km, as percentage of the best substrate cleavage (L-hArg-ACC, 100%)” value in assay [1] is recorded as 20–40%.
The same measure, in the same setting: as for `N=C(NCCC[C@H](N)C(=O)Nc1ccc2c(CC(N)=O)cc(=O)oc2c1)N[N+](=O)[O-]` [L-Arg(NO2)], the figure is 38.5–74.0%.
With `NC(=O)CC[C@H](N)C(=O)Nc1ccc2c(CC(N)=O)cc(=O)oc2c1` [L-Gln], the Km in assay [3] is more than 250 µM.
Consider `NC(=O)Cc1cc(=O)oc2cc(NC(=O)[C@@H](N)CCC(=O)OCc3ccccc3)ccc12` [L-Glu(Bzl)], for which the “rate of hydrolysis, proportional to kcat/Km, as percentage of the best substrate cleavage (L-hArg-ACC, 100%)” value in assay [1] is given as 38.5–74.0%.
With `NCCC(=O)O` [β-Ala], the “hydrolysis of ACC substrate by NmAPN (in words)” value in assay [1] is on record as “not hydrolyzed”.
